# According to publication PMC5338263, “GS-5734 and its parent nucleoside analog inhibit Filo-, Pneumo-, and Paramyxoviruses” (Scientific Reports, 2017):
# “Also recorded” adds a separate entry of the source. Like-named read-outs stand apart in the source and are kept apart here.
# Experiments:
# [1] = test system: MV EZ vaccine (Measles virus); assay: in vitro; conditions: human
# EBOV Rec. Mayinga-GFP = assay: microbe, parasite or virus in culture; conditions: Zaire ebolavirus, Huh-7
# CCHF Rec. IbAr 10200 = assay: organism not typed; type: cell-based, Crimean Congo Hemorrhagic Fever virus
# WNV = conditions: cited from earlier work
# EBOV Rec. Makona-ZSG = assay: microbe, parasite or virus in culture; conditions: Zaire ebolavirus, Huh-7
# [2] = Cell viability assay (CellTiter-Glo 2.0), 293T/17; conditions: human, uninfected 293T/17 cells
# NiV B-2004 [3] = assay: microbe, parasite or virus in culture; conditions: Henipavirus nipahense, HeLa
# NiV B-2004 (Nipah virus) [4] = assay: in vitro; conditions: human
# HeV 1996 (Hendra virus) [5] = assay: in vitro; conditions: human
# hMPV Rec. CAN97-83-GFP = assay: microbe, parasite or virus in culture; type: cell-based; conditions: human metapneumovirus, Vero
# MV Rec. rMV^EZGFP(3) = assay: microbe, parasite or virus in culture; conditions: Measles morbillivirus, HeLa
# [6] = Cell viability assay (CellTiter-Glo 2.0), Huh7; conditions: human, uninfected Huh7 cells
# SARS-CoV = conditions: cited from earlier work
# hPIV3 = conditions: cited from earlier work
# MV, hPIV3, hMPV, and RSV = assay: organism not typed; type: cell-based; conditions: read-out: EC50 values (range over viruses)
# [7] = test system: recombinant reporter-expressing NiV, EBOV, and Marburg viruses (MARV); assay: microbe, parasite or virus in culture; type: cell-based; conditions: Zaire ebolavirus, read-out: EC50 values (range over viruses)
# [8] = test system: TBEV Hypr (Tick-borne Encephalitis virus); assay: in vitro; conditions: human
# Pneumo = assay: Potency by virus family (Fig. 2), Pneumo; type: cell-based; conditions: read-out: potency class (EC50)
# [9] = Cell viability assay (CellTiter-Glo 2.0), macrophages; conditions: human, uninfected peripheral blood macrophages (Mϕ)
# ANDV Chile 9717869 = assay: microbe, parasite or virus in culture; conditions: Orthohantavirus andesense, Huh-7
# MARV Rec. Bat371-Gluc [10] = assay: organism not typed; conditions: Huh-7
# NiV B-2004 (Nipah virus) [11] = assay: in vitro; conditions: human; remark: listed apart in the source
# [12] = test system: OHFV Bogoluvovska (Omsk Hemorrhagic Fever virus); assay: in vitro; conditions: human
# HeV 1996 [13] = test system: HeV 1996
# Rhabdo = assay: Potency by virus family (Fig. 2), Rhabdo; type: cell-based; conditions: read-out: potency class (EC50)
# Paramyxo = assay: Potency by virus family (Fig. 2), Paramyxo; type: cell-based; conditions: read-out: potency class (EC50)
# HeV 1996 (Hendra virus) [14] = assay: in vitro; conditions: human; remark: listed apart in the source
# MARV Rec. Bat371-Gluc [15] = test system: MARV Rec. Bat371-Gluc
# Arena = assay: Potency by virus family (Fig. 2), Arena; type: cell-based; conditions: read-out: potency class (EC50)
# [16] = test system: ANDV Chile 9717869 (Andes virus); assay: in vitro; conditions: human
# NiV M-1999 = assay: microbe, parasite or virus in culture; type: cell-based, Nipah virus; conditions: Henipavirus nipahense, HeLa
# Filo (filoviruses) = conditions: cited from earlier work
# Bunya = assay: Potency by virus family (Fig. 2), Bunya; type: cell-based; conditions: read-out: potency class (EC50)
# [17] = Cell viability assay (CellTiter-Glo 2.0), HMVEC-L; conditions: human
# Ebola virus = conditions: in vivo; cited from earlier work
# NiV B-2004 [18] = test system: NiV B-2004
# [19] = test system: reporter and wild-type filo-, pneumo-, and paramyxoviruses; assay: organism not typed; conditions: read-out: EC50 values (range over viruses)
# [20] = test system: MARV Rec. Bat371-Gluc (Marburg virus); assay: in vitro; conditions: human
# HeV 1996 [21] = assay: microbe, parasite or virus in culture; conditions: Henipavirus hendraense, HeLa
# NiV minigenome = assay: cells; type: cell-based, Nipah virus
# [22] = Cell viability assay (CellTiter-Glo 2.0), A549; conditions: human, uninfected A549 cells
smiles,measurement,setting,value
N#C[C@@]1(c2ccc3c(N)ncnn23)O[C@H](CO)[C@@H](O)[C@H]1O [Nuc],selectivity ratio,[1],25
same,EC50,MV EZ vaccine,2000 nM
same,EC50,EBOV Rec. Mayinga-GFP,1610 ± 120 nM
same,EC90,EBOV Rec. Mayinga-GFP,6700 nM
same,EC50,CCHF Rec. IbAr 10200,little to no antiviral activity; also recorded: No inhibition
same,EC50,CCHF Rec. IbAr 10200; Huh-7,> 50000 nM
same,antiviral activity (active or not),WNV,not
same,EC50,EBOV Rec. Makona-ZSG,1280 ± 140 nM
same,EC90,EBOV Rec. Makona-ZSG,3300 nM
same,CC50 at 72 h,[2],> 50000 nM
same,EC90,NiV B-2004 [3],2200 nM
same,selectivity ratio,NiV B-2004 (Nipah virus) [4],60
same,selectivity ratio,HeV 1996 (Hendra virus) [5],50
same,EC50,MuV IA 2006,9700 nM
same,EC50,hMPV Rec. CAN97-83-GFP,730 nM
same,EC90,hMPV Rec. CAN97-83-GFP,1700 nM
same,EC50,MV Rec. rMV^EZGFP(3),990 ± 360 nM
same,EC90,MV Rec. rMV^EZGFP(3),2600 nM
same,CC50 at 72 h,[6],> 50000 nM
same,antiviral activity (active or not),SARS-CoV,shown to have activity
same,antiviral activity (active or not),hPIV3,shown to have activity
same,EC50,"MV, hPIV3, hMPV, and RSV",500 to 2000 nM
same,EC50,[7],1000 to 3000 nM
CCC(CC)COC(=O)[C@H](C)N[P@](=O)(OC[C@H]1O[C@@](C#N)(c2ccc3c(N)ncnn23)[C@H](O)[C@@H]1O)Oc1ccccc1 [GS-5734],selectivity ratio,[8],4.8
same,EC50,Pneumo,< 100 nM
same,CC50 at 72 h,[9],2000 nM
same,EC50,ANDV Chile 9717869,6950 ± 3100 nM
same,EC90,ANDV Chile 9717869,10100 nM
same,EC50,MARV Rec. Bat371-Gluc [10],19.3 nM
same,EC90,MARV Rec. Bat371-Gluc [10],52 nM
same,EC50,LASV Josiah,4500 nM
same,EC50,EBOV Rec. Mayinga-GFP,66 nM
same,EC90,EBOV Rec. Mayinga-GFP,203 nM
same,EC50,CCHF Rec. IbAr 10200,minimal to no antiviral activity; also recorded: No inhibition
same,EC50,CCHF Rec. IbAr 10200; Huh-7,> 10000 nM
same,selectivity ratio,NiV B-2004 (Nipah virus) [11],259
same,selectivity ratio,[12],8.3
same,EC50,EBOV Rec. Makona-ZSG,13.6 ± 1 nM
same,EC90,EBOV Rec. Makona-ZSG,45 nM
same,EC50,HeV 1996 [13],55 nM
same,EC50,RSV Rec. rgRSV224 (A2),21 nM
same,EC50,Rhabdo,> 4000 nM
same,EC50,Paramyxo,< 100 nM
same,selectivity ratio,HeV 1996 (Hendra virus) [14],150
same,EC50,MARV Rec. Bat371-Gluc [15],19 nM
same,EC50,Arena,> 4000 nM
same,selectivity ratio,[16],1.4
same,EC50,NiV M-1999,65.5 ± 16 nM
same,activity in cell-based antiviral assays,Filo (filoviruses),shown activity
same,EC50,Bunya,> 4000 nM
same,CC50 at 72 h,[17],8500 nM
same,protection from lethal Ebola virus infection,Ebola virus,protected
same,EC50,NiV B-2004 [18],32 nM
same,EC50,[19],3 to 790 nM
same,selectivity ratio,[20],526
same,EC50,HeV 1996 [21],54.8 ± 1.3 nM
same,EC90,HeV 1996 [21],117 nM
same,EC50,MV Rec. rMV^EZGFP(3),36.5 ± 28 nM
same,EC90,MV Rec. rMV^EZGFP(3),73 nM
same,CC50 at 72 h,[6],> 10000 nM
same,EC50,NiV minigenome,sub-micromolar range
same,EC50,"NiV minigenome; Henipavirus nipahense, HeLa, 48 h",49 nM
same,CC50 at 72 h,[22],> 10000 nM
